From patent US20260226497A1, “TRANSGENIC MAIZE EVENT MON 87427” (Monsanto Technology LLC, priority 2009, published 2026)

System: event MON 87427 hybrids
Type: in vivo, maize
Settings: two successive sprays at 2.25 lb a.e./acre each
Excerpt: This illustrates that the F1 hybrid plants from event MON 87427 crosses are fully tolerant to glyphosate when used for weed control.

Structure (SMILES): O=C(O)CNCP(=O)(O)O [glyphosate, N-phosphonomethylglycine]
- injury or male fertility compared with NK603 hybrid: no difference was observed in injury or male fertility
